Laboratory results reported in patent publication US12685312B2, “Sulfonamide apyrase inhibitors” (Texas Crop Science, Inc., priority 2022, dated 2026).

Tested on: apyrase
Assay: Screen for apyrase inhibitors (Method 1, in vitro phosphate-release absorbance assay)
Type: biochemical
Settings: inhibitor conc at 1 mM stock, 1 hr room temperature, absorbance 630 nm; rounded average of two assay results
Method in brief: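 Phosphate-release colorimetric assay (Windsor method) in 60 mM Hepes, 3 mM MgCl2, 3 mM CaCl2, 3 mM ATP, pH 6.5, with compound or DMSO control added. Released phosphate developed with ammonium molybdate and ascorbic acid/TCA, then stopped with citrate/acetic acid.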

Structure (SMILES)	% Inhibition of Apyrase [%]
Cc1c(NC(=O)c2ccc(Cl)c(S(=O)(=O)Nc3ccccc3)c2)cccc1[N+](=O)[O-] [I-39, 4-chloro-N-(2-methyl-3-nitrophenyl)-3-(N-phenylsulfamoyl)benzamide]	14
COc1ccc(S(=O)(=O)N2CCc3ccccc32)cc1C(=O)Nc1ccc2c(c1)OCCO2 [I-577, N-(2,3-dihydrobenzo[b][1,4]dioxin-6-yl)-5-(indolin-1-ylsulfonyl)-2-methoxybenzamide]	48
O=C(Nc1ccc2c(c1)CCC2)c1cccc(NS(=O)(=O)c2cccs2)c1 [I-632, N-(2,3-dihydro-1H-inden-5-yl)-3-(thiophene-2-sulfonamido)benzamide]	62
CC1Cc2ccccc2N1S(=O)(=O)c1cccc(C(=O)Nc2ccc3c(c2)OCCO3)c1 (centres unmarked) [I-536, N-(2,3-dihydrobenzo[b][1,4]dioxin-6-yl)-3-((2-methylindolin-1-yl)sulfonyl)benzamide]	54
N#Cc1cccc(NC(=O)c2ccc(S(=O)(=O)Nc3ccccc3F)cc2)c1 [I-406, N-(3-cyanophenyl)-4-(N-(2-fluorophenyl)sulfamoyl)benzamide]	30
CN(c1ccccc1)S(=O)(=O)c1cccc(NC(=O)c2cc3cc(F)ccc3[nH]2)c1 [I-704, 5-fluoro-N-(3-(N-methyl-N-phenylsulfamoyl)phenyl)-1H-indole-2-carboxamide]	65
COc1cc(C)c(NC(=O)c2cccc(S(=O)(=O)N3CCc4ccccc43)c2)cc1OC [I-605, N-(4,5-dimethoxy-2-methylphenyl)-3-(indolin-1-ylsulfonyl)benzamide]	23
COc1ccc([N+](=O)[O-])cc1NC(=O)c1cccc(S(=O)(=O)Nc2cc(C(F)(F)F)ccc2Cl)c1 [I-251, 3-(N-(2-chloro-5-(trifluoromethyl)phenyl)sulfamoyl)-N-(2-methoxy-5-nitrophenyl)benzamide]	62
CCOc1ccc(NS(=O)(=O)c2ccc(NC(=O)c3cccc(OC(F)F)c3)cc2)cc1 [I-986, 3-(difluoromethoxy)-N-(4-(N-(4-ethoxyphenyl)sulfamoyl)phenyl)benzamide]	56
Cc1cccc(NC(=O)c2cc(S(=O)(=O)Nc3cccc(C)c3)ccc2Cl)c1 [I-518, 2-chloro-N-(m-tolyl)-5-(N-(m-tolyl)sulfamoyl)benzamide]	56
Cc1ccc(NS(=O)(=O)c2cc(C(=O)Nc3cccc([N+](=O)[O-])c3)ccc2C)cc1C [I-5, 3-(N-(3,4-dimethylphenyl)sulfamoyl)-4-methyl-N-(3-nitrophenyl)benzamide]	71
COc1ccc([N+](=O)[O-])cc1NC(=O)c1ccc(C)c(S(=O)(=O)Nc2ccccc2)c1 [I-28, N-(2-methoxy-5-nitrophenyl)-4-methyl-3-(N-phenylsulfamoyl)benzamide]	23
Cc1ccc(NS(=O)(=O)c2ccc(C(=O)Nc3ccc(C)c(C)c3)cc2)cc1 [I-888, N-(3,4-dimethylphenyl)-4-(N-(p-tolyl)sulfamoyl)benzamide]	43
O=C1Cc2cccc(NS(=O)(=O)c3ccc(Br)cc3)c2N1 [I-812, 4-bromo-N-(2-oxoindolin-7-yl)benzenesulfonamide]	54
N#Cc1cccc(NC(=O)c2ccc(Cl)c(S(=O)(=O)N3CCc4ccccc43)c2)c1 [I-462, 4-chloro-N-(3-cyanophenyl)-3-(indolin-1-ylsulfonyl)benzamide]	59
O=C(c1ccccc1NS(=O)(=O)c1cccc(C(F)(F)F)c1)N1CCc2ccccc21 [I-375, N-(2-(indoline-1-carbonyl)phenyl)-3-(trifluoromethyl)benzenesulfonamide]	43
O=C(Nc1cccc(NS(=O)(=O)c2c(Br)cc3[nH]c(=O)oc3c2Cl)c1)c1ccc(Br)cc1 [I-337, 4-bromo-N-(3-((5-bromo-7-chloro-2-oxo-2,3-dihydrobenzo[d]oxazole)-6-sulfonamido)phenyl)benzamide]	73
COc1ccc(NS(=O)(=O)c2ccc(NC(=O)c3cc(Cl)cc(Cl)c3)cc2)cc1 [I-992, 3,5-dichloro-N-(4-(N-(4-methoxyphenyl)sulfamoyl)phenyl)benzamide]	49
CSc1cccc(NC(=O)c2cccc(S(=O)(=O)Nc3ccc4c(c3)OCO4)c2)c1 [I-248, 3-(N-(benzo[d][1,3]dioxol-5-yl)sulfamoyl)-N-(3-(methylthio)phenyl)benzamide]	64
COc1ccc(Cl)cc1NC(=O)c1cccc(S(=O)(=O)N2CCc3ccccc32)c1 [I-548, N-(5-chloro-2-methoxyphenyl)-3-(indolin-1-ylsulfonyl)benzamide]	53
COc1ccc(C(=O)Nc2ccc(F)c(F)c2)cc1S(=O)(=O)Nc1ccc(Br)cc1 [I-26, 3-(N-(4-bromophenyl)sulfamoyl)-N-(3,4-difluorophenyl)-4-methoxybenzamide]	28
O=C(Nc1ccc(F)cc1)c1cccc(S(=O)(=O)Nc2ccc3c(c2)OCO3)c1 [I-216, 3-(N-(benzo[d][1,3]dioxol-5-yl)sulfamoyl)-N-(4-fluorophenyl)benzamide]	71
COc1ccc(NC(=O)c2ccc(S(=O)(=O)Nc3ccccc3)cc2)cc1 [I-402, N-(4-methoxyphenyl)-4-(N-phenylsulfamoyl)benzamide]	40
O=C(c1ccc(NS(=O)(=O)c2ccc(Cl)c([N+](=O)[O-])c2)cc1)N1CCCc2ccccc21 [I-930, 4-chloro-3-nitro-N-(4-(1,2,3,4-tetrahydroquinoline-1-carbonyl)phenyl)benzenesulfonamide]	55
C=CCN(c1ccc(Cl)cc1)S(=O)(=O)c1ccc(Cl)c(C(=O)N2CCc3ccccc32)c1 [I-486, N-allyl-4-chloro-N-(4-chlorophenyl)-3-(indoline-1-carbonyl)benzenesulfonamide]	58
COc1ccc(NS(=O)(=O)c2cccc(NC(=O)c3cccc(-n4cccc4)c3)c2)cc1 [I-27, N-(3-(N-(4-methoxyphenyl)sulfamoyl)phenyl)-3-(1H-pyrrol-1-yl)benzamide]	24
O=C(Nc1ccc2[nH]nnc2c1)c1ccc(S(=O)(=O)Nc2ccc(Cl)cc2)cc1 [I-389, N-(1H-benzo[d][1,2,3]triazol-5-yl)-4-(N-(4-chlorophenyl)sulfamoyl)benzamide]	63
COc1ccc2c(c1)CCCN2C(=O)c1ccc(S(=O)(=O)Nc2ccccc2C)cc1 [I-872, 4-(6-methoxy-1,2,3,4-tetrahydroquinoline-1-carbonyl)-N-(o-tolyl)benzenesulfonamide]	56
O=C(Nc1cccc(S(=O)(=O)Nc2cccc(C(F)(F)F)c2)c1)c1ccc(Cl)nc1 [I-725, 6-chloro-N-(3-(N-(3-(trifluoromethyl)phenyl)sulfamoyl)phenyl) nicotinamide]	57
